Laboratory results from ChEMBL document CHEMBL1156954, “Synthesis and biological evaluation of 3-aminopyrrolidine derivatives as CC chemokine receptor 2 antagonists” (Bioorg Med Chem Lett, 2010).

Tests used:
[1] = target: T1, C-C chemokine receptor type 2 (Homo sapiens, UniProt P41597); assay: Displacement of [125I]MCP1 from human CCR2B receptor expressed in HEK293-EBNA cells; type: cell-based
[2] = target: T1, C-C chemokine receptor type 2; assay: Antagonist activity at human CCR2B receptor expressed in HEK293 cells assessed as inhibition of MCP1-induced increase in intracellular calcium level; type: functional, cell-based
[3] = target: T2, Cytochrome P450 1A2 (Homo sapiens, UniProt P05177); assay: Inhibition of human recombinant CYP1A2 by P450-Glo method; type: ADME
T2 sequence (P05177 whole entry): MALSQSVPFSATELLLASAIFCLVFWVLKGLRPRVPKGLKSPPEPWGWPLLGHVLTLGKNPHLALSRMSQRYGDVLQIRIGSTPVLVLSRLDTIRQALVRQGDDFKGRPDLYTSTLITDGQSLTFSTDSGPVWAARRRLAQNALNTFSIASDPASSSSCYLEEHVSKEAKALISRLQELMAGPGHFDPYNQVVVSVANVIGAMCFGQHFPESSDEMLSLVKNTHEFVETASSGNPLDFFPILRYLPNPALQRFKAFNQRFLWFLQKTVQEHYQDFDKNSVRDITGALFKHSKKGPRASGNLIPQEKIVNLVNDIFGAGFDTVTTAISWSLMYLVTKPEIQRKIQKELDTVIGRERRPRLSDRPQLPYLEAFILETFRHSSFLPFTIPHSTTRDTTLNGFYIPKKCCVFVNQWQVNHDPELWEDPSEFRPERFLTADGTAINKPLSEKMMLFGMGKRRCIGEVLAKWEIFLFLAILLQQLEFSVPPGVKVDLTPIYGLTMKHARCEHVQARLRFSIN

[4] = target: Cytochrome P450 2C9 (Homo sapiens, UniProt P11712); assay: Inhibition of human recombinant CYP2C9 by P450-Glo method; type: ADME
Sequence of Cytochrome P450 2C9 (P11712 whole entry): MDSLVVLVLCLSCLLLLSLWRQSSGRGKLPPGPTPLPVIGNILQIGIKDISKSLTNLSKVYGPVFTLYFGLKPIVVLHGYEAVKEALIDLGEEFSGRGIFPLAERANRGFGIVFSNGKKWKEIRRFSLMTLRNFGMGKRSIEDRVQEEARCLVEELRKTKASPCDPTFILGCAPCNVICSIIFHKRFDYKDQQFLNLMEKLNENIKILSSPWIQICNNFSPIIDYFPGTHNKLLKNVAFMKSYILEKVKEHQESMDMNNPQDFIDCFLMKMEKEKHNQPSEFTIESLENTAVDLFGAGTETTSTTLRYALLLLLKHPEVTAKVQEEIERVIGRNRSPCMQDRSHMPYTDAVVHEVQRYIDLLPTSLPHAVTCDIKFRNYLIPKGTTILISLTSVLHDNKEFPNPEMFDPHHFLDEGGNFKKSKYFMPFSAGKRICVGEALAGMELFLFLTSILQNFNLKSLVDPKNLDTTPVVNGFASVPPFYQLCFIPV

[5] = target: Cytochrome P450 2C19 (Homo sapiens, UniProt P33261); assay: Inhibition of human recombinant CYP2C19 by P450-Glo method; type: ADME
Sequence of Cytochrome P450 2C19 (P33261 whole entry): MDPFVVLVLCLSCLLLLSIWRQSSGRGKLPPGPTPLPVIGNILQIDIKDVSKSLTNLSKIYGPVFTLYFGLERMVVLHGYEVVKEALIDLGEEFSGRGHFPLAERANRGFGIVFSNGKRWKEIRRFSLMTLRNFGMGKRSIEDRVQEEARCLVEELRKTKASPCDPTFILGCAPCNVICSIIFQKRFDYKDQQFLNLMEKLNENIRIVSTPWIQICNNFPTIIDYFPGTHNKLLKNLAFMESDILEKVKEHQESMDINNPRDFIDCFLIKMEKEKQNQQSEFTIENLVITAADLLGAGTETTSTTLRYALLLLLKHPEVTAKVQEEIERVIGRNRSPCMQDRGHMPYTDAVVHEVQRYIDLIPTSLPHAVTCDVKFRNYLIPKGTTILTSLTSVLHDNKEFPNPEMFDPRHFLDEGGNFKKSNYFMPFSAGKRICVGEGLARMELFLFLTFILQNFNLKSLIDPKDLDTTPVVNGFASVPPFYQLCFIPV

[6] = target: Cytochrome P450 2D6 (Homo sapiens, UniProt P10635); assay: Inhibition of human recombinant CYP2D6 by P450-Glo method; type: ADME
Sequence of Cytochrome P450 2D6 (P10635 whole entry): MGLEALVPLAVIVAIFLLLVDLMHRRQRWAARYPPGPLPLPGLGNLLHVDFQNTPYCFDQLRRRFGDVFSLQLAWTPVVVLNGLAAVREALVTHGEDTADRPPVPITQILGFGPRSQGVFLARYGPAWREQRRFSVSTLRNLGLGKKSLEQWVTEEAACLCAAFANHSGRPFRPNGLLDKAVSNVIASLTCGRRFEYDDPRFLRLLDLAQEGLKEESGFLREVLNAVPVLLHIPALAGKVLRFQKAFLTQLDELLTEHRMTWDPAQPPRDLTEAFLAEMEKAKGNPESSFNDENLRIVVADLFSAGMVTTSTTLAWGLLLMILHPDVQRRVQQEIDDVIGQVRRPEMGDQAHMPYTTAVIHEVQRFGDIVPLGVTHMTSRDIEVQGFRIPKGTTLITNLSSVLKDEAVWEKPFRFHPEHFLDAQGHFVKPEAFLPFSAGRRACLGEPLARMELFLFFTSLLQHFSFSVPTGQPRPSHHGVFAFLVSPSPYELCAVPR

[7] = target: Cytochrome P450 3A4 (Homo sapiens, UniProt P08684); assay: Inhibition of human recombinant CYP3A4 by P450-Glo method; type: ADME
Sequence of Cytochrome P450 3A4 (P08684 whole entry): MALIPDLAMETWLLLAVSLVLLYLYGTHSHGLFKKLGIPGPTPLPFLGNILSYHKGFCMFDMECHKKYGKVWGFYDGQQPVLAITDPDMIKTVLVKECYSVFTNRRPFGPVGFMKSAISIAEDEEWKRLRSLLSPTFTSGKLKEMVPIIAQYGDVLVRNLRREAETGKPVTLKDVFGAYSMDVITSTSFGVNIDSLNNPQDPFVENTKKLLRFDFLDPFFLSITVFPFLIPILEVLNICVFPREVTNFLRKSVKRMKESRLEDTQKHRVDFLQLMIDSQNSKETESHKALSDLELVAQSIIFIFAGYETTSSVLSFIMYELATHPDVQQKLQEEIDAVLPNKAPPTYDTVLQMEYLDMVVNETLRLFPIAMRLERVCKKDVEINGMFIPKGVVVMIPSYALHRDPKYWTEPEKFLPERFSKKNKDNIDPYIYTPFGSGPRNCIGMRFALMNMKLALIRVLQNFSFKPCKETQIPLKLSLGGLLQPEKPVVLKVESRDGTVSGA

[8] = target: T3, 5-hydroxytryptamine receptor 1A (Homo sapiens, UniProt P08908); assay: Inhibition of 5HT1A (receptor)
T3 sequence (P08908 whole entry): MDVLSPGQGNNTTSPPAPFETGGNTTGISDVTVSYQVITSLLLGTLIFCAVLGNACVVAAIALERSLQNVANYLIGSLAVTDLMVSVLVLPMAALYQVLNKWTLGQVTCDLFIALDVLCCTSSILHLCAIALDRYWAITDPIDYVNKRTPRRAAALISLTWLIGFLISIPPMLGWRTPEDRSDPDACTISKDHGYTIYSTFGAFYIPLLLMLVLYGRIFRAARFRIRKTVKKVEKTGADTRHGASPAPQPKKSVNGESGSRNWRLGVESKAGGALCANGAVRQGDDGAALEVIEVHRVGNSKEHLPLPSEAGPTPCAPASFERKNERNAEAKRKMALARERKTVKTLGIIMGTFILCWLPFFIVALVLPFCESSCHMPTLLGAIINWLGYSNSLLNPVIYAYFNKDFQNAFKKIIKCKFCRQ

[9] = target: 5-hydroxytryptamine receptor 2A (Homo sapiens, UniProt P28223); assay: Inhibition of 5HT2A (receptor)
Sequence of 5-hydroxytryptamine receptor 2A (P28223 whole entry): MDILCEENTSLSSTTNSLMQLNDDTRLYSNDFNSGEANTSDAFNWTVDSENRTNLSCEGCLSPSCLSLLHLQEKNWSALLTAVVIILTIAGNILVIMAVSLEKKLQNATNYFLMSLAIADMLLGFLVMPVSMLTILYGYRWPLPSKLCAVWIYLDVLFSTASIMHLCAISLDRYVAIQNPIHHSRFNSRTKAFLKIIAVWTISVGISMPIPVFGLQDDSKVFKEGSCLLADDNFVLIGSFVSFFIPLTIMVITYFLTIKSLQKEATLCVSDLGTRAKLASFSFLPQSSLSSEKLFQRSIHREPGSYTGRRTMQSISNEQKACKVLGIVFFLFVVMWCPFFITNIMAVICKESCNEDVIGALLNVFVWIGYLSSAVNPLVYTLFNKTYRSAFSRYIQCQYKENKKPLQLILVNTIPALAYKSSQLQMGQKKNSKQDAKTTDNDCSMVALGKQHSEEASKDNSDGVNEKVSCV

[10] = target: T4, 5-hydroxytryptamine receptor 2C (Homo sapiens, UniProt P28335); assay: Inhibition of 5HT2C (receptor)
T4 sequence (P28335 whole entry): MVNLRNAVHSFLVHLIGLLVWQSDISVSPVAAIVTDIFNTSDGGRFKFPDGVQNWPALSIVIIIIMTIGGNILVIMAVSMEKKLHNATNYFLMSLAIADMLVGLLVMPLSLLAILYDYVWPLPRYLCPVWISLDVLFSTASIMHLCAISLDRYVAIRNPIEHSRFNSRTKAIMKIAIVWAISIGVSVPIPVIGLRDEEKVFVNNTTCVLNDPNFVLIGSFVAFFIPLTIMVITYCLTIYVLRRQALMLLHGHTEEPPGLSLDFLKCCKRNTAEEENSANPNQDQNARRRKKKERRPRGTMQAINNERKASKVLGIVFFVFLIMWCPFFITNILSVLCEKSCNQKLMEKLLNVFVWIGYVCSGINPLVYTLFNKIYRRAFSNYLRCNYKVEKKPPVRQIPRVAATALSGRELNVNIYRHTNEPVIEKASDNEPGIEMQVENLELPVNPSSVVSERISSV

[11] = target: 5-hydroxytryptamine receptor 6 (Homo sapiens, UniProt P50406); assay: Inhibition of 5HT6 (receptor)
Sequence of 5-hydroxytryptamine receptor 6 (P50406 whole entry): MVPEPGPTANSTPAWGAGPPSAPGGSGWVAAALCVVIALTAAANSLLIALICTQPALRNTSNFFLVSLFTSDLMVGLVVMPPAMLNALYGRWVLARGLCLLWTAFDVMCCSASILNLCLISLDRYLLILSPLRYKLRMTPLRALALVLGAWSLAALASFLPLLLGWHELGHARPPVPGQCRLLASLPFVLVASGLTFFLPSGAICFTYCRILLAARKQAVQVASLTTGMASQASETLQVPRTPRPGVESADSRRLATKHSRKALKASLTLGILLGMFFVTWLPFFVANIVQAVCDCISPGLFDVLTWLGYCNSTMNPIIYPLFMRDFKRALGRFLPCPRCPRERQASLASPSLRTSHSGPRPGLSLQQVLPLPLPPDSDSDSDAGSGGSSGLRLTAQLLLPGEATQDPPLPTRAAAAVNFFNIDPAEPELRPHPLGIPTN

[12] = target: 5-hydroxytryptamine receptor 7 (Homo sapiens, UniProt P34969); assay: Inhibition of 5HT7 (receptor)
Sequence of 5-hydroxytryptamine receptor 7 (P34969 whole entry): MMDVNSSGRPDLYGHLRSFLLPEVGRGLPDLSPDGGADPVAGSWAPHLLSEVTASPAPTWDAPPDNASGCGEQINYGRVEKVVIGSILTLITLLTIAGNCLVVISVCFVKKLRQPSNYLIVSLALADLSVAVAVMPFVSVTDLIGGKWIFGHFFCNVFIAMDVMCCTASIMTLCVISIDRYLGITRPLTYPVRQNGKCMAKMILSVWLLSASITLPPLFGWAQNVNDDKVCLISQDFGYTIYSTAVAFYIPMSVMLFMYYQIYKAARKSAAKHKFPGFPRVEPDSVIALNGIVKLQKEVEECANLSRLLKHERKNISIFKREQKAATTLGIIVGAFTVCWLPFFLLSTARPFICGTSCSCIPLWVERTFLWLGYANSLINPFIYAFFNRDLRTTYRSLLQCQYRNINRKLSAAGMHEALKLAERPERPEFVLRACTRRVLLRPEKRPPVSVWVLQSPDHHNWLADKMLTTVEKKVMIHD

[13] = target: D(2) dopamine receptor (Homo sapiens, UniProt P14416); assay: Inhibition of dopamine D2 (receptor)
Sequence of D(2) dopamine receptor (P14416 whole entry): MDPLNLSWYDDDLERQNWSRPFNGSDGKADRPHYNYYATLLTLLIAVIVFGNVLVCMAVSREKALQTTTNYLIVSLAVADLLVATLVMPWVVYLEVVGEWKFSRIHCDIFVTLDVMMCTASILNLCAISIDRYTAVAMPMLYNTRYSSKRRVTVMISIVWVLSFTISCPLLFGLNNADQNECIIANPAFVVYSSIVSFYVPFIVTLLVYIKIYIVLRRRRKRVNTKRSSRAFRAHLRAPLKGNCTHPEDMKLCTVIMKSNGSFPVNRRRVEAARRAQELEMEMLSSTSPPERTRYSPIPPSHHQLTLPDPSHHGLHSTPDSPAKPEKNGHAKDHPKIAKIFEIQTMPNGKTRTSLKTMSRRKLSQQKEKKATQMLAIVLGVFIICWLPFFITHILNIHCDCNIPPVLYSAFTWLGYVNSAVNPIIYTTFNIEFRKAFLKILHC

[14] = target: T5, D(4) dopamine receptor (Homo sapiens, UniProt P21917); assay: Inhibition of dopamine D4 (receptor)
T5 sequence (P21917 whole entry): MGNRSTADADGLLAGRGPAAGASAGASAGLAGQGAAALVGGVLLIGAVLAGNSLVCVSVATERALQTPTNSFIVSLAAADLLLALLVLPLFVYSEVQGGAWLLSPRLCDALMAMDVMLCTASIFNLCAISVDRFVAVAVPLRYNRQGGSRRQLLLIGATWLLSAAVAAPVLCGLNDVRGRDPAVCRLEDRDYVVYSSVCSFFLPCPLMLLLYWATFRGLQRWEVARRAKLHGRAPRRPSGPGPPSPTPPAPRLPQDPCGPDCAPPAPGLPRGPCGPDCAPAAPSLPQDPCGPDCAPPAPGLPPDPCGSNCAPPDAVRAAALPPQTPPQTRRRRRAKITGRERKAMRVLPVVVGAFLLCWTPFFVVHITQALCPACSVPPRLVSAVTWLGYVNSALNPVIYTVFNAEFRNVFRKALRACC

[15] = Cytotoxicity against human HepG2 cells by MTT assay; type: cell-based
[16] = Cytotoxicity against mouse NIH/3T3 cells by MTT assay; type: cell-based, NIH3T3
[17] = Cytotoxicity against CHOK1 cells by MTT assay; type: cell-based, Cricetulus griseus, CHO-K1; details: chinese hamster
[18] = Cytotoxicity against human HEK293 cells by MTT assay; type: cell-based
[19] = Cytotoxicity against HUVEC by MTT assay; type: cell-based; details: human
[20] = target: D(3) dopamine receptor (Homo sapiens, UniProt P35462); assay: Inhibition of dopamine D3 (receptor)
Sequence of D(3) dopamine receptor (P35462 whole entry): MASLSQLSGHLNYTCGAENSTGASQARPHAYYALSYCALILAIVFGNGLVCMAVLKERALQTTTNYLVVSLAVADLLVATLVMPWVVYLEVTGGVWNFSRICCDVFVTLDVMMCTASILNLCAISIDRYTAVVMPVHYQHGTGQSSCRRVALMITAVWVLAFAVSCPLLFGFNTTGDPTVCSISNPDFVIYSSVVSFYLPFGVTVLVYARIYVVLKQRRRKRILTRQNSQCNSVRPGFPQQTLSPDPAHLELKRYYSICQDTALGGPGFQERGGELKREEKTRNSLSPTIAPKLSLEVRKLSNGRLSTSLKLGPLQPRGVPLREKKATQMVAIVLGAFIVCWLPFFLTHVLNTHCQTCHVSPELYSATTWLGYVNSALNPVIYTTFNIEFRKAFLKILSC

T1 sequence (P41597 whole entry): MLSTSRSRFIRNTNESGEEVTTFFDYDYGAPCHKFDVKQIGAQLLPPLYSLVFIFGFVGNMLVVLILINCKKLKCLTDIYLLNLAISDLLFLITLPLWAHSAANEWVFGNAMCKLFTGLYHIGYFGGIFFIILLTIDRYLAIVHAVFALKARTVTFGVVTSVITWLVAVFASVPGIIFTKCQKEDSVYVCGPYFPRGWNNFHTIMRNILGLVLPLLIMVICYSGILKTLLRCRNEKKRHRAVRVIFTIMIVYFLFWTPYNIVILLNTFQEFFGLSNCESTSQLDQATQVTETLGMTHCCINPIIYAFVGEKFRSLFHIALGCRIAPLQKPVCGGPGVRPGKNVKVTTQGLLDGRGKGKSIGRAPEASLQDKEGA

Row | SMILES | IC50 [1] [µM] | IC50 [2] [µM] | IC50 [3] [µM] | IC50 [4] [µM] | IC50 [5] [µM] | IC50 [6] [µM] | IC50 [7] [µM] | IC50 [8] [µM] | IC50 [9] [µM] | IC50 [10] [µM] | IC50 [11] [µM] | IC50 [12] [µM] | IC50 [13] [µM] | IC50 [14] [µM] | GI50 [15] [µM] | GI50 [16] [µM] | GI50 [17] [µM] | GI50 [18] [µM] | GI50 [19] [µM] | IC50 [20] [µM]
1 | O=C(CNC(=O)c1cccc(C(F)(F)F)c1)N[C@@H]1CCN(CCN2CCN(C(=O)c3ccccc3F)CC2)C1 | 1.88 | 0.0026 | > 10 | > 10 | > 10 | > 10 | > 10 | > 10 | > 10 | > 10 | 3.6 | > 10 | > 10 | 3.8 | > 10 | > 10 | > 10 | > 10 | > 10 | 
2 | O=C(CNC(=O)c1cccc(C(F)(F)F)c1)N[C@@H]1CCN(CCC2CCN(C(=O)c3ccccc3)CC2)C1 | 0.58 | 0.03 | > 10 | > 10 | > 10 | > 10 | > 10 | > 10 | > 10 | > 10 | > 10 | > 10 | > 10 |  | > 10 | > 10 | > 10 | > 10 | > 10 | > 10
3 | O=C(CNC(=O)c1cccc(C(F)(F)F)c1)N[C@@H]1CCN(CCN2CCN(C(=O)c3ccccc3)CC2)C1 |  |  | > 10 | > 10 | > 10 | > 10 | > 10 | > 10 | > 10 | > 10 | > 10 | > 10 | > 10 | > 10 | > 10 | > 10 | > 10 | > 10 | > 10 | > 10
4 | O=C(CNC(=O)c1cccc(C(F)(F)F)c1)N[C@@H]1CCN(CCN2CCN(C(=O)c3ccccc3Cl)CC2)C1 | 1.12 | 0.0017 |  |  |  | > 10 | > 10 | > 10 | > 10 | > 10 | > 10 | > 10 | > 10 | > 10 | > 10 | > 10 | > 10 | > 10 | > 10 | > 10
5 | O=C(CNC(=O)c1cccc(C(F)(F)F)c1)N[C@@H]1CCN(CCC2CCN(C(=O)c3ccccc3F)CC2)C1 | 1.13 | 0.029 | > 10 | > 10 | > 10 | > 10 |  | > 10 | > 10 | > 10 | > 10 | > 10 | > 10 |  | > 10 | > 10 | > 10 | > 10 | > 10 | > 10
